# Reference: US20030215878A1, “Novel G protein-coupled purinergic receptor, GAVE17” (priority 2002, published 2003)
# Assays:
# GAVE17 [1] = target: T1, GAVE17 (Homo sapiens, UniProt Q9BPV8); experiment: Agonist assay utilizing FLIPR, NIH 3T3 cell line transfected with hGAVE17 (Ca2+ fluorescence); assay type: cell-based; set-up: host or cells: Gα16-coupled NIH 3T3; settings: NIH313 cell line transfected with PEAK8 expression vector comprising SEQ ID NO:1; FIGS. 3a-d
# T1 sequence (Q9BPV8 1-333 isoform Q9BPV8-2): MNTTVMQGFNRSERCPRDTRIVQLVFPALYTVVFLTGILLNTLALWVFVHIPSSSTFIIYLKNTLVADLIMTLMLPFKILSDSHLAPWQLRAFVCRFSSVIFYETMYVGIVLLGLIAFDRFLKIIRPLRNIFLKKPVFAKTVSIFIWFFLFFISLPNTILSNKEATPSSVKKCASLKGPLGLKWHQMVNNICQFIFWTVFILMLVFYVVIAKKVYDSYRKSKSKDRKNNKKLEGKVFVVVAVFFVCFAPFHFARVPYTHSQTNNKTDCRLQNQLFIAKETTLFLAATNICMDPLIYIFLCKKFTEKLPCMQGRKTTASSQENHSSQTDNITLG
# Text: To screen for agonists of human GAVE17, hGAVE17 is coupled artificially to a Gq mechanism. Activation of the Gq mechanism stimulates the release of Ca^2+ from sarcoplasmic reticulum vesicles within the cell. The Ca^2+ is released into the cytoplasm where it can be detected using Ca^2+ chelating dyes. A Fluorometric Imaging Plate Reader or FLIPR® apparatus (Molecular Devices) is used to monitor any resulting changes in fluorescence. The activity of an agonist is reflected by an increase in fluorescence.
# In a particular example, NIH 3T3 cells expressing hGAVE17 are pre-engineered to express an indiscriminate form of Gq protein (Gα16). To prepare such cells, Gα16-coupled NIH 3T3 cells are obtained commercially (Molecular Devices LIVEWARE™ cells, Catalog No. RD-HGA16) and the protocol in Example 2 followed to facilitate expression of hGAVE17 in those cells.
# The cells are maintained in log phase of growth at 37° C. and 5% CO2 in F12 Ham's media (Gibco/BRL, Catalog No. 11765-054) containing 10% fetal bovine serum, 100 lU/ml penicillin (Gibco/BRL, Catalog No. 15140-148), 100 μg/ml streptomycin (Catalog No. 15140-148, Gibco/BRL), 400 μg/ml genetecin (G418) (Gibco/BRL, Catalog No. 10131-035) and 200 μg/ml zeocin (Invitrogen, Catalog No. R250-05). One day prior to an assay, 12,500 cells/well of the NIH 3T3 cells are plated onto 384-well clear-bottomed assay plates with a well volume of 50 μl (Greiner/Marsh, Catalog No. N58102) using a 96/384 Multidrop device (Labsystems, Type 832). The cells are incubated at 37° C. in a humidified 5% CO2 incubator (Forma Scientific CO2 water-jacketed incubator Model 3110).
# The following stock solutions are prepared: a 1 M stock solution of Hepes (pH 7.5) (Gibco/BRL, Catalog No. 15630-080); a 250 mM stock solution of probenicid (Sigma, Catalog No. P8761) made in 1 N NaOH; and a 1 mM stock solution of Fluo 4-AM Dye (Molecular Probes, Catalog No. F1 4202) made in DMSO (Sigma D2650). Reaction buffer is prepared with 1000 ml Hank's balanced salt solution (Fisher/Mediatech, Catalog No. MT21023), 20 ml of the 1 M Hepes stock solution and 10 ml of the 250 mM probenicid stock solution. […]
# A compound library containing possible agonists such as various purine derivatives or purine mimetics is tested at a concentration of 10 μM in physiological salt buffer. Changes in fluorescence are measured for 10 seconds prior to compound addition. After the addition of the compound, fluorescence is measured every second for the first minute followed by exposures taken every six seconds for a total experimental analysis time of three minutes. […]
# GAVE17 [2] = target: T1, GAVE17; experiment: Nucleotide ligand activation of and affinity for GAVE17 in transformed NIH 3T3 cells; assay type: cell-based; set-up: expressed in transfected cells; host or cells: NIH 3T3; settings: for Kd: transformed NIH 3T3 cells
compound,measurement,setting,value
Nc1ncnc2c1ncn2[C@@H]1O[C@H](COP(=O)(O)OP(=O)(O)OP(=O)(O)O)[C@@H](O)[C@H]1O [ATP],agonist activity (FLIPR units vs log molar concentration),GAVE17 [1],agonist activity
same,activation of GAVE17,GAVE17 [2],activate
same,Kd,GAVE17 [2],0.8 µM
Nc1nc2c(ncn2[C@@H]2O[C@H](COP(=O)(O)OP(=O)(O)O)[C@@H](O)[C@H]2O)c(=O)[nH]1 [GDP],activation of GAVE17,GAVE17 [2],activate
same,Kd,GAVE17 [2],65 µM
Nc1ncnc2c1ncn2[C@@H]1O[C@H](COP(=O)(O)OP(=O)(O)O)[C@@H](O)[C@H]1O [ADP],agonist activity (FLIPR units vs log molar concentration),GAVE17 [1],agonist activity
same,activation of GAVE17,GAVE17 [2],activate
same,Kd,GAVE17 [2],26 µM
O=c1ccn([C@@H]2O[C@H](COP(=O)(O)OP(=O)(O)O)[C@@H](O)[C@H]2O)c(=O)[nH]1 [UDP],agonist activity (FLIPR units vs log molar concentration),GAVE17 [1],agonist activity
same,activation of GAVE17,GAVE17 [2],activate
same,Kd,GAVE17 [2],10 µM
O=c1ccn([C@@H]2O[C@H](COP(=O)(O)OP(=O)(O)OP(=O)(O)O)[C@@H](O)[C@H]2O)c(=O)[nH]1 [UTP],agonist activity (FLIPR units vs log molar concentration),GAVE17 [1],agonist activity
same,activation of GAVE17,GAVE17 [2],activate
same,Kd,GAVE17 [2],6.9 µM
